Measurements published in US20050214387A1, “Low-dose potassium supplementation for the prevention and treatment of hypertension” (priority 2002, published 2005).
Values joined by “and” are separate entries in the source; they are usually repeats but may differ in a detail not shown here. Equal entries are not always repeated.

What was measured:
[1] = test system: apparently healthy volunteers; assay: Low-dose potassium trial: compliance and side effects; assay type: in vivo, human; settings: one person receiving potassium
Protocol: The patients and the investigator were unaware of the type of supplement being given, other than that it was a nutrient. The placebo and potassium chloride pills were provided in identical containers. The adherence of the volunteers to the treatment was assessed at each visit by questioning, and by counting the pills returned.
The baseline blood pressure used for the statistical analysis was the average of the measurements taken during the first week period. For Interval level variables (e.g. BP), differences between groups were tested using the Two-Sample t test while differences within each group were tested with the Paired t test. For Ordinal level variables (e.g. compliance) these tests were performed using the Mann-Whitney Test and the Wilcoxon Signed Rank Test for comparisons between and within the two groups respectively. The Chi-Squared Test was used to assess the significance of differences between the groups for Nominal level variables (e.g. gender).

[2] = test system: apparently healthy volunteers; assay: Double-blind placebo-controlled low-dose potassium trial: blood pressure (MAP, SBP, DBP); assay type: in vivo, human; settings: for DBP Week 3 − Week 0 mean difference / MAP Week 3 − Week 0 mean difference / SBP Week 3 − Week 0 mean difference: change Week 0 to 3, n = 30, mean ± SEM; for DBP Week 6 − Week 0 mean difference / MAP Week 6 − Week 0 mean difference / SBP Week 6 − Week 0 mean difference: change Week 0 to 6, n = 30, mean ± SEM
Protocol: A double-blind, placebo controlled trial on 59 volunteers, randomly assigned to receive 24 mmol/d of slow release potassium chloride (n=30) or a placebo (n=29) was conducted. Measures of BP, anthropometric characteristics and urine analysis for electrolytes were recorded during a one-week baseline period. Supplementation was for six weeks during which BP and changes in weight were assessed and a second 24-hour urine collection made. The primary outcome was the change in mean arterial pressure (MAP). Systolic (SBP) and diastolic (DBP) blood pressure were secondary outcomes.
The study took the form of a randomized double-blind, placebo-controlled trial with the aim of testing the effect of potassium supplementation on BP. […] The study consisted of a baseline period of one week during which blood pressure and body weight were measured at the beginning and end, and a 24-hour urine sample was collected to estimate electrolyte intake. During a six weeks intervention phase, BP and body weight were measured at three-week intervals, and a second 24-hour urine sample was collected during the final week. Potassium chloride was administered as one slow release tablet containing 8 mmol of potassium chloride (Slow-K Tablets 600 mg kindly supplied by Alliance Pharmaceuticals Ltd, Avonbridge House, Chippenham, Wiltshire SN15 2BB, UK) three times a day with meals. The placebo contained sorbitol and fructose.
Each BP measurement was performed following current recommendations (Beevers et al., ABC of hypertension, 4th Ed., London, BMJ Publishing Group, 2000). BP was assessed at the same time of day (within 30 minutes) for every appointment to avoid the influence of circadian variations in BP (Id.), at approximately the same heart rate, and by the same observer using the same instruments throughout the study for each measurement. The subjects were instructed not to smoke, eat or drink during the 30 minutes before each appointment They were also given verbal and written notice to avoid exercising 30 minutes before the appointment, to come to the appointment with an empty bladder and to maintain strictly their usual habits on the day of the appointment (coffee, tea, meals consumed at the same time of the day). BP measurements were performed after the subjects had rested quietly for at least five minutes in the seated position. Two different cuffs (35 cm and 42 cm) were used depending on the arm circumference. At each visit at least three readings for systolic (SBP) and diastolic (DBP) BP and heart rate were taken at two-minute intervals in the left arm using a semi-automated device employing the oscillometric method (Omron M5-I, Omron Healthcare Europe B.V., Hoofddorp, The Netherlands). The first readings of each assessment were ignored to avoid results affected by the defense reaction (Beevers et al., ABC of hypertension, 4th Ed., London, BMJ Publishing Group, 2000) and the last two readings were averaged and recorded. The readings were thereafter confirmed after a two-minute interval with a Hawksley random zero sphygmomanometer (Hawksley and Sons, Lancing, Sussex, UK) because automatic devices may be unsuitable for some individuals for which there is no obvious reason (Id.).
SBP was measured as the point of appearance of the Korotkoff sounds (Phase I) and DBP was measured as the point of complete disappearance of the Korotkoff sounds (Phase V) according to the guidelines given by the British Hypertension Society (Id). All recordings from the semi-automated device agreed well with the random zero sphygmomanometer. Subjects with either SBP≧140 mm Hg or DBP level≧90 mm Hg were considered to be hypertensive.
Mean Arterial Pressure (MAP) was computed as MAP=(2 DBP+SBP)/3 (Vander et al., Human Physiology, The Mechanism of Body Function, 8th Ed., McGraw-Hill, New York, 2000, pp. 407-16 and 626-34, and Wilson et al., Hypertension, 1999, 34, 181-6). […]

hypertensive patients = settings: 18 hypertensive patients, daily supplement of 48 mmol; cited from earlier work
[3] = 24 mmol/d slow release potassium chloride, n = 30, mean ± SEM
[4] = Week 0 to 6, listed as potassium
[5] = after six weeks of supplementation, versus placebo
[6] = within potassium group, listed as potassium
[7] = within potassium group, change Week 3 to 6, n = 30, mean ± SEM

[Cl-].[K+] [Potassium, potassium chloride]
side effects reported [1]: increase in appetite
DBP Week 3 [2, 3]: 72.95 ± 2.08 mm Hg
DBP Week 6 [2, 3]: 71.47 ± 1.90 mm Hg
MAP Week 3 [2, 3]: 87.67 ± 2.20 mm Hg
MAP Week 6 [2, 3]: 84.97 ± 2.06 mm Hg
SBP Week 3 [2, 3]: 117.17 ± 2.71 mm Hg
SBP Week 6 [2, 3]: 111.93 ± 2.52 mm Hg
DBP Potassium − placebo Mean Difference (95% CI) ([2]; Week 0 to 3): −4.11 (−6.09, −2.13)^4 mm Hg
MAP Potassium − placebo Mean Difference (95% CI) ([2]; Week 0 to 3): −3.34 (−5.22, −1.47)^3 mm Hg
SBP Potassium − placebo Mean Difference (95% CI) ([2]; Week 0 to 3): −1.28 (−4.21, 1.65) mm Hg
DBP Potassium − placebo Mean Difference (95% CI) ([2]; Week 0 to 6): −6.46 (−8.74, −4.19)^4 mm Hg
MAP Potassium − placebo Mean Difference (95% CI) ([2]; Week 0 to 6): −7.01 (−9.12, −4.89)^4 mm Hg
SBP Potassium − placebo Mean Difference (95% CI) ([2]; Week 0 to 6): −7.60 (−10.46, −4.73)^4 mm Hg
DBP Potassium − placebo Mean Difference (95% CI) [2, 4]: marked and significant decrease
MAP Potassium − placebo Mean Difference (95% CI) [2, 4]: marked and significant decrease
SBP Potassium − placebo Mean Difference (95% CI) [2, 4]: marked and significant decrease
DBP Potassium − placebo Mean Difference (95% CI) ([2]; Week 3 to 6): −2.35 (−4.70, −0.00)^5 mm Hg
MAP Potassium − placebo Mean Difference (95% CI) ([2]; Week 3 to 6): −3.66 (−5.84, −1.49)^3 mm Hg
SBP Potassium − placebo Mean Difference (95% CI) ([2]; Week 3 to 6): −6.32 (−8.84, −3.79)^4 mm Hg
reduction in DBP [2, 5]: 6.46 mm Hg
reduction in MAP [2, 5]: 7.01 mm Hg
reduction in SBP [2, 5]: 7.60 mm Hg
DBP Week 3 − Week 0 mean difference ([2]; within potassium group): −2.53 ± 0.73^6 mm Hg and −2.53 ± 0.73 mm Hg
MAP Week 3 − Week 0 mean difference ([2]; within potassium group): −2.21 ± 0.72^3 mm Hg and −2.21 ± 0.72^2 mm Hg
SBP Week 3 − Week 0 mean difference ([2]; within potassium group): −0.98 ± 1.20 mm Hg
DBP Week 3 − Week 0 mean difference [2, 6]: significant decrease
MAP Week 3 − Week 0 mean difference [2, 6]: significant decrease
SBP Week 3 − Week 0 mean difference [2, 6]: not significantly reduced
DBP Week 6 − Week 0 mean difference ([2]; within potassium group): −4.02 ± 0.87^5 mm Hg and −4.02 ± 0.87 mm Hg
MAP Week 6 − Week 0 mean difference ([2]; within potassium group): −4.91 ± 0.80^5 mm Hg and −4.91 ± 0.79 mm Hg
SBP Week 6 − Week 0 mean difference ([2]; within potassium group): −6.22 ± 1.07^5 mm Hg and −6.22 ± 1.10 mm Hg
DBP Week 6 − Week 0 mean difference [2, 6]: decreased significantly
MAP Week 6 − Week 0 mean difference [2, 6]: decreased significantly
SBP Week 6 − Week 0 mean difference [2, 6]: decreased significantly
DBP Week 6 − Week 3 mean difference [2, 7]: −1.48 ± 0.98 mm Hg and −1.48 ± 0.97 mm Hg
MAP Week 6 − Week 3 mean difference [2, 7]: −2.70 ± 0.91^4 mm Hg and −2.70 ± 0.91 mm Hg
SBP Week 6 − Week 3 mean difference [2, 7]: −5.23 ± 1.03^5 mm Hg and −5.23 ± 1.00 mm Hg
SBP Week 6 − Week 3 mean difference ([2]; within potassium group, change Week 3 to 6, n = 30, mean ± SEM, listed as potassium): decreased significantly
effect on BP (hypertensive patients): lower BP
